Results taken from US20120172361A1, “TRIAZINE DERIVATIVES AND THEIR THERAPEUTICAL APPLICATIONS” (CALIFORNIA CAPITAL EQUITY, LLC, priority 2009, published 2012).

Target: T1, Aurora-A(h) (Homo sapiens, UniProt O14965)
T1 construct: purchased Millipore (KinaseProfiler service); also Reaction Biology Corp. (Kinase Hotspot)
T1 sequence (O14965 1-403): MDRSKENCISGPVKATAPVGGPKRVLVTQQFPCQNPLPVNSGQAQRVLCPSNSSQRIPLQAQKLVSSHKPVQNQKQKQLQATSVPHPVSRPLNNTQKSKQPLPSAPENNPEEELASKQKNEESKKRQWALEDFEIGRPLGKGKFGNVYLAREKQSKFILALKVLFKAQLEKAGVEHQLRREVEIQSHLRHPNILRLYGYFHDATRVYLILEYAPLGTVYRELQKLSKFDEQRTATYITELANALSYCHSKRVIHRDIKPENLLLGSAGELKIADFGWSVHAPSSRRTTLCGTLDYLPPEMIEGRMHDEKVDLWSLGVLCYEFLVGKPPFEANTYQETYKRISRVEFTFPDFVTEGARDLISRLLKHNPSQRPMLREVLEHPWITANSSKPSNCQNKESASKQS
Test: Aurora-A kinase assay (KinaseProfiler Service Assay Protocols, Millipore; also Kinase Hotspot, Reaction Biology Corp.)
Format: biochemical
Details: compound concentration 1 μM
Procedure: This example illustrated Aurora Kinase Assays of selected Compounds from this invention (referred to Daniele Fancelli et al, J. Med. Chem., 2006, 49 (24), pp 7247-7251). The KinaseProfiler™ Service Assay Protocols (Millipore) were used to test the kinase inhibiting activity of novel compounds from this invention. To do this, the buffer composition was as: 20 mM MOPS, 1 mM EDTA, 0.01% Brij-35, 5% Glycerol, 0.1% β-mercaptoethanol, 1 mg/mL BSA. Test compounds were initially dissolved in DMSO at the desired concentration, then serially diluted to the kinase assay buffer. In a final reaction volume of 25 μL, Aurora-A(h) (5-10 mU) is incubated with 8 mM MOPS pH 7.0, 0.2 mM EDTA, 200 μM LRRASLG (Kemptide), 10 mM MgAcetate and [γ33P-ATP]. The reaction was initiated by the addition of the MgATP mix. After incubation for 40 minute at room temperature, the reaction was stopped by addition of 5 μL of a 3% phosphoric acid solution. 10 μL of the reaction was then spotted onto a P30 filtermat and washed three times for 5 minutes in 50 mM phosphoric acid and once in methanol prior to drying and scintillation counting. Wells containing substrate but no kinase and wells containing a phosphopeptide control were used to set 0% and 100% phosphorylation value, respectively.
Also Kinase Hotspot SM kinase assay was used to test the compounds for IC50 or % inhibitions (Reaction Biology Corp.). Inhibitor IC50 values were determined by titration of compound at the optimal kinase concentration (Kinase EC50).

| Compound | inhibition at 1 µM [%] |
| --- | --- |
| Cc1cc(Nc2nc(Sc3ccc(C(=O)NCc4ccc(F)cc4)cc3)nc(N3CCN(C)CC3)n2)n[nH]1 [Example 118] | > 90 |
| Cc1cc(Nc2nc(N)nc(Sc3ccc(NC(=O)C4CC4)cc3)n2)n[nH]1 [Example 97] | > 90 |
| Cc1cnc(Nc2nc(Sc3cccc(N)c3)nc(N3CCN(C)CC3)n2)s1 [Example 49] | > 50 |
| Cc1cc(Nc2nc(Sc3ccc(N)cc3)nc(C3CC3)n2)n[nH]1 [Example 45] | > 50 |
| CCc1nc(Nc2cc(C)[nH]n2)nc(Sc2ccc(C(=O)NC3CC3)cc2)n1 [Example 107] | < 50 |
| CN1CCN(c2nc(Nc3cc(C(C)(C)C)[nH]n3)nc(Sc3ccc(NC(=O)C4CC4)cc3)n2)CC1 [Example 54] | > 50 |
| CCN(CC)c1nc(Nc2cc(C)[nH]n2)nc(Sc2ccc(NC(=O)C3CC3)cc2)n1 [Example 94] | > 90 |
| CN1CCN(c2nc(Nc3cc(C4CCC4)[nH]n3)nc(Sc3ccc(NC(=O)C4CC4)cc3)n2)CC1 [Example 55] | > 90 |
| CN1CCN(c2nc(Nc3ncc(Cl)s3)nc(Sc3ccc(NC(=O)C4CC4)cc3)n2)CC1 [Example 50] | > 90 |
| CCC(=O)Nc1ccc(Sc2nc(CC)nc(Nc3cc(C)[nH]n3)n2)cc1 [Example 83] | > 90 |
| CN1CCN(c2nc(Nc3nccs3)nc(Sc3ccc(NC(=O)C4CC4)cc3)n2)CC1 [Example 60] | < 50 |
| Cc1cc(Nc2nc(Sc3ccc(NC(=O)C4CC4)cc3)nc(N3CCCC3)n2)n[nH]1 [Example 89] | > 90 |
| CCC(=O)Nc1ccc(Sc2nc(CC)nc(Nc3cc(C4CC4)[nH]n3)n2)cc1 [Example 84] | > 90 |
| Cc1cnc(Nc2nc(Sc3ccc(NC(=O)C4CC4)cc3)nc(N3CCN(c4ccncc4)CC3)n2)s1 [Example 20] | > 90 |
| CCc1nc(Nc2ncc(C)s2)nc(Sc2ccc(NC(=O)C3CC3)cc2)n1 [Example 58] | < 50 |
